Measured values reported in US20240158448A1, “MULTIVALENT NANO-'SELF' PEPTIDES AND USES THEREOF” (THE TRUSTEES OF THE UNIVERSITY OF PENNSYLVANIA, priority 2021, published 2024).
“Also recorded” adds a separate entry of the source.

Experiments:
THP-1 macrophages = assay: Peptide inhibition assay (competition with FAM-labeled nS-F on THP-1 macrophages); assay type: binding, human; conditions: pre-treatment with unlabeled peptide
Procedure: Peptide inhibition assay. THP-1 monocytes were PMA differentiated in RPMI for 48 hours. […] To measure background internalization of the FAM-labeled peptides, nS-X-FAM was used. To determine the efficacy of the bivalent peptides to inhibit SIRPα binding, nS-X was used. Excess peptides were washed off with PBS and cells were fixed with 4% formaldehyde for 15 minutes at RT, washed with PBS, stained with 1 μg/mL Hoechst 33342, and then washed with PBS again. Fluorescence imaging was performed as described elsewhere herein and quantification was done using ImageJ.

human THP-1 macrophages [1] = assay: In vitro phagocytosis assay: opsonized human RBCs engulfed by peptide-treated THP-1 macrophages; assay type: cell-based
Procedure: (§1) In vitro phagocytosis assay. Fresh human RBCs were washed twice with 50 mM EDTA (Thermo Fischer) in PBS (Gibco) then twice with 5% FBS in PBS. RBCs were opsonized with 20 μg/mL rabbit anti-human RBC antibody (Rockland) in 5% FBS for 1 hour at RT with shaking. For CD47 blocked RBCs, 5 μg/mL of mouse anti-human CD47 (B6H12; BD Biosciences) were added. Thereafter, RBCs were washed with PBS three times and stained with PKH26 dye (1:800 dilution in PBS; Sigma) for 1 hour at RT with shaking in the dark. RBCs were washed and resuspended in PBS.
(§2) THP-1 monocytes were PMA differentiated in RPMI for 48 hours. Macrophages were then washed with RPMI media three times. For SIRPα blocked THP-1 macrophages, 20 nM, 1 μM or 50 μM of the nano—Self peptides were incubated with the THP-1 macrophages for 1 hour at 37 ° C., 5% CO2 and 95% humidity. Those THP-Is were then washed with RPMI three times.
(§3) CO2 and 95% humidity. Macrophages were then washed with RPMI three times. Adherent and uninternalized RBCs were lysed with water for 30 seconds followed by immediate replacement with RPMI media. In order to distinguish remaining adherent RBCs from internalized RBCs, opsonized RBCs were stained with AlexaFluor 647 donkey anti-rabbit (binds to rabbit polyclonal opsonin on RBC; Invitrogen) IgG (1:1000) while unopsonized, CD47 blocked RBCs were stained with AlexaFluor 647 donkey anti-mouse (binds to mouse monoclonal anti-CD47 on RBCs; Invitrogen) IgG (1:1000) for 30 minutes. After washing, macrophages were fixed with 4% formaldehyde for 15 minutes at RT, washed with PBS, stained with 1 μg/mL Hoechst 33342, and then washed with PBS again. Fluorescence imaging was performed as described elsewhere herein and quantification was done using ImageJ. At least 200 cells were analyzed and experiments were repeated at least three times.

SIRPα = biological target: T1, SIRPα (Homo sapiens, UniProt P78324); assay: CD47-Fc Inhibition Assay on THP-1 macrophages; assay type: binding; conditions: 1 μM or 50 μM peptide, 2 μg/mL CD47-Fc, anti-Fc fluorescence
T1 construct: THP-1 monocytes were PMA differentiated in RPMI for 48 h; endogenous in cells; host or cells: PMA-differentiated THP-1 macrophages
Procedure: CD47-Fc Inhibition Assay. THP-1 monocytes were PMA differentiated in RPMI for 48 h. The macrophages were washed with RPMI media and then incubated with 1 μM or 50 μM of nano- Self peptides for 1 h at 37° C., 5% CO2, and 95% humidity. After washing, the macrophages were incubated with Human Trustain FcX Fc receptor blocking solution (Biolegend) for 10 min at RT and then incubated with 2 μg/mL CD47-Fc fusion protein (ACRO Biosystems) for 1 h at 37° C., 5% CO2, and 95% humidity. As a negative control, B6H12 was pre-mixed with CD47-Fc at 4° C. on a rotator for 1 h. The macrophages were then washed and incubated with 0.5 μg/mL goat anti-human IgG Fc DyLight 488 (Thermo Fischer) for 1 h at 37° C., 5% CO2, and 95% humidity. Finally, the macrophages were washed, fixed, Hoechst 33342 stained, and imaged as described above.
To determine whether the nS peptides bind to SIRPα, nS-FF and nS-F4 were used as soluble competitive inhibitors of saturable CD47-Fc fusion protein binding to macrophages (FIG. 20). Addition of multivalent nS peptides was followed by Fc-receptor blockade to minimize Fc-driven binding of construct. Afterwards, CD47-Fc was added and then finally anti-Fc fluorescence imaging was performed (FIG. 20, left).

[2] = tested on: human macrophages (opsonized K562 cancer cells); assay: Phagocytosis of opsonized K562 erythroleukemia cells by human macrophages; assay type: cell-based
Procedure: as §1, §2, §3
The anti-RBC successfully opsonized and triggered phagocytosis of K562 cells by macrophages (FIGS. 2A, 2F and 2E). […] Interaction of the nS peptides with K562 cells is likely minimal due to the relative lack of SIRPα expression. […] For both opsonized RBCs and opsonized K562s (FIGS. 2D, 2F), the hyperphagocytosis that is achieved with soluble F- and V-nS peptides matches the recently measured increases for disruption of both (i) the trans interactions between CD47 on a target and macrophage SIRPα and also, importantly, (ii) the cis interactions between CD47 and SIRPα on the same macrophage (FIG. 2G-left). Expression profiling of macrophages confirms these cells generally express CD47 at roughly similar levels to other cell types (FIG. 15). […] A preliminary conclusion is that nS-FF and the other substituted peptides, which were designed to bind SIRPα, inhibit both the cis and trans interactions between SIRPα and CD47 ([…]).

[3] = tested on: mouse bone marrow derived macrophages (BMDMs); assay: Phagocytosis of anti-TYRP1 opsonized B16F10 melanoma cells by mouse bone marrow derived macrophages; assay type: cell-based; conditions: 50 μM peptide
Procedure: B16F10 cells: Bone marrow cells were isolated from femurs and tibias of healthy C57BL6/J mice (The Jackson Laboratory) and cultured in 10-cm petri dishes containing IMDM (Gibco) supplemented with 10% v/v FBS, 1% v/v penicillin/streptomycin, and 1:10,000 macrophage colony stimulating factor cytokine (M-CSF; Biolegend) for 7 days at 37° C., 5% CO2 and 95% humidity. All animal experiments were performed according to protocols approved by the University of Pennsylvania's IACUC (protocol #805977 and #804455). The resulting mouse bone marrow derived macrophages (BMDMs) were washed with PBS containing Ca2^+/Mg2^+ (Gibco) then detached with 0.25% trypsin-EDTA (Gibco) and re-plated in 6-well tissue culture plates using IMDM+M-CSF for 24 hours.
Mouse melanoma B16F10 cells were washed with PBS containing Ca2-/Mg2- and then trypsinized with 0.05% trypsin-EDTA. After washing twice with PBS, the cells were labeled with 1:10,000 CFDA—SE (Thermo Fisher) in PBS for 10 minutes. B16F10 cells were opsonized with 10 μg/mL anti-TYRP1 (TA99; Bio X Cell) in PBS for 2 hours at 4° C.with occasional inverting. For CD47 blocked B16F10 cells, 5 μg/mL of […] were added. During the incubation time, the BMDMs were washed with media then stained with 1:2,000 CellTracker Deep Red (Thermo Fisher) in PBS with Ca2^+/Mg2^+ for 10 min. After washing, 50 μM of the nano—Self peptides were incubated with the BMDMs for 1 hour at 37° C., 5% CO2 and 95% humidity. Finally, BMDMs were washed twice with PBS and then twice with serum-free IMDM.
Without removing the supernatant, the opsonized melanoma cells were added to the labeled BMDMs at a ratio of 2:1 for 2 hours at 37° C., 5% CO2 and 95% humidity. During the last 15 minutes of the assay, the cells were Hoechst stained. The wells were washed with serum free IMDM then fixed with 4% formaldehyde for 15 minutes at RT, and PBS washed. Fluorescence imaging was performed using an Olympus IX71 with a digital EMCCD camera (Cascade 512B) and a 40×/0.6 NA objective. Quantification was done with ImageJ (NIH). At least 200 cells were analyzed and two-tailed student's t-test was used to determine statistical significance.

[4] = tested on: mouse J774A.1 macrophages; assay: In vitro phagocytosis assay: opsonized human RBCs engulfed by mouse J774A.1 macrophages; assay type: cell-based
Procedure: as §3, with “In vitro phagocytosis assay. […] For CD47 blocked RBCs, 5 μg/mL of mouse anti-human CD47 (B6H12; BD Biosciences) were added. Thereafter, RBCs were washed with PBS three times and stained with PKH26 dye (1:800 dilution in PBS; Sigma) for 1 hour at RT with shaking in the dark. RBCs were washed and resuspended in PBS. J774A.1 macrophages were plated for 24 hours in RPMI. For SIRPα blocked J774A.1 macrophages, the same peptide blocking procedure as described elsewhere herein was used with the addition of a positive control using 5 μg/mL rat anti-mouse SIRPα ([…]; BD Biosciences). […] CO2” for “CO2”

human THP-1 macrophages [5] = assay: Residual adhesion of opsonized RBCs to macrophages; assay type: cell-based; conditions: 50 μM peptide
From the text: To measure the residual adhesion of RBCs and distinguish it from internalization by macrophages, the engulfment assay with human RBCs used a secondary antibody against the opsonizing IgG, which allowed us to clearly see RBCs in contact with macrophages that are not internalized (FIG. 29C). The cells are also firmly attached to the macrophages because the culture dishes were rinsed after fixation and secondary antibody labeling. […] All of the RBCs in these samples are equally opsonized with IgG that binds Fc-receptors (FcR's) on macrophages, and so differences in measured adhesion implicate differences in the CD47—SIRPα interaction.

| Substance | inhibition of monovalent nS-F-FAM binding to macrophages (THP-1 macrophages) | effect on phagocytosis of opsonized RBCs (words) (human THP-1 macrophages [1]; 20 nM peptide) | level of inhibition of CD47-Fc binding (SIRPα) | effect on phagocytosis of opsonized RBCs (words) (human THP-1 macrophages [1]; saturating / 50 μM peptide) | effect on phagocytosis of opsonized WT and SIRPα KO B16 cells [3] | also measured |
| --- | --- | --- | --- | --- | --- | --- |
| ((VTELFREG-PEG5)2-K)2-K [nS-F4] | more potent in inhibiting monovalent nS-F-fluor association with macrophages than bivalent nS-FF | more potent in enhancing phagocytosis | as inhibitory as anti-CD47 | – | – | increase of phagocytosis relative to opsonized and CD47 blocked K562 cells ([2]; saturating peptide): nearly doubled; also recorded: about two-fold; macrophages engulfing opsonized K562 cells at saturation ([2]; saturation): ~40% |
| (LETVEGTR-PEG5)2-K (LETVEGTRKRTGEVTEL; bivalent, PEG5 linkers, lysine core; nS-XX; (8)..(9) 5x PEG linker between residues; (9)..(10) 5x PEG linker between residues) [bivalent scrambled control] | – | – | 0 | unaffected; also recorded: do not affect baseline engulfment of opsonized RBCs; also recorded: do not have effects on phagocytosis | – | effect on phagocytosis of opsonized K562 cells [2]: unaffected; also recorded: only opsonization effect observed |
| (VTELVREG-PEG5)2-K (VTELVREGKGERVLETV; bivalent, PEG5 linkers, lysine core; nS-VV; (8)..(9) 5x PEG linker between residues; (9)..(10) 5x PEG linker between residues) [bivalent nS-V] | further decreased | successful in activating THP-1 to engulf opRBCs | – | activity profiles in phagocytosis assays that are similar to the monovalent nS-F | – | – |
| CVELTREGC (HELM PEPTIDE1{C.V.E.L.T.R.E.G.C.[am]}$PEPTIDE1,PEPTIDE1,1:R3-9:R3$$$V2.0; N-terminus assumed; SMILES CC(C)C[C@@H]1NC(=O)[C@H](CCC(=O)O)NC(=O)[C@H](C(C)C)NC(=O)[C@@H](N)CSSC[C@@H](C(N)=O)NC(=O)CNC(=O)[C@H](CCC(=O)O)NC(=O)[C@H](CCCNC(=N)N)NC(=O)[C@H]([C@@H](C)O)NC1=O) [nS-Cyc] | – | – | – | greater effect in perturbing the CD47-SIRPα interaction compared to linear nS-wt; also recorded: slightly higher levels than opsonized and anti-CD47 blocked RBCs; also recorded: Maximum levels of phagocytic macrophages | Maximum levels of phagocytic macrophages | fold more active than the linear counterpart ([4]; mouse macrophages, opsonized RBCs): roughly 20 fold; effect on phagocytosis of opsonized RBCs (words) ([4]; saturating / 50 μM peptide): slightly higher levels than opsonized and anti-CD47 blocked RBCs; residual adhesion of opsonized RBCs to macrophages (human THP-1 macrophages [5]): lowest amount of residual adhesion to macrophages |
| CVTELFREGC (HELM PEPTIDE1{C.V.T.E.L.F.R.E.G.C.[am]}$PEPTIDE1,PEPTIDE1,1:R3-10:R3$$$V2.0; N-terminus assumed; SMILES CC(C)C[C@@H]1NC(=O)[C@H](CCC(=O)O)NC(=O)[C@H]([C@@H](C)O)NC(=O)[C@H](C(C)C)NC(=O)[C@@H](N)CSSC[C@@H](C(N)=O)NC(=O)CNC(=O)[C@H](CCC(=O)O)NC(=O)[C@H](CCCNC(=N)N)NC(=O)[C@H](Cc2ccccc2)NC1=O) [nS-F-Cyc, cyclic variant of nS-F] | – | – | – | Maximum levels of phagocytic macrophages | Maximum levels of phagocytic macrophages | increase of macrophage phagocytosis relative to nS-wt (human THP-1 macrophages [1]; saturating peptide): roughly 25% |
